Test results: patent US20220289791A1, “LACTATE DEHYDROGENASE INHIBITOR POLYPEPTIDES FOR USE IN THE TREATMENT OF CANCER” (UNIVERSITÉ CATHOLIQUE DE LOUVAIN, priority 2019, published 2022)
*1 amine or outer side, *2 acyl side, *3 side chain or, on linkers, in order; H or OH if unused. Where a SMILES comes first, the peptide text is derived from it. Bridges are numbered along the chain shown (N, C = ends). mXylylene = c1cc(C[*:1])cc(C[*:2])c1

Tests used:
[1] = target: T1, LDHBtr (Homo sapiens, UniProt P07195); test: Microscale thermophoresis (MST), Example 1; type: binding
T1 sequence (P07195 21-334): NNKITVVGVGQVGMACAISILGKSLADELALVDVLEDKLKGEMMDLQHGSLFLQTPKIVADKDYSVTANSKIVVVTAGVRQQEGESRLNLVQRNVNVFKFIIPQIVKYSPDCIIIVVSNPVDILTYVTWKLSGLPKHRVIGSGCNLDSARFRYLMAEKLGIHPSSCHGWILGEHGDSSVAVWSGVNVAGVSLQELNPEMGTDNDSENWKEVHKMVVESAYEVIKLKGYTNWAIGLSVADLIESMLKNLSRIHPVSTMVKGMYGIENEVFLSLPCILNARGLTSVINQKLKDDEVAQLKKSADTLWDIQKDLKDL
Method: (§1) MST measurements were performed on a Nanotemper Monolith NT.115 instrument (Nanotemper Technologies®, GmbH) using Red-dye-NHS fluorescent labeling. Each LDH (WT or truncated) sample, purified to homogeneity, was labeled with the Monolith RED-NHS 2nd generation labeling dye according to the supplied protocol (Nanotemper Technologies®, GmbH). Measurements were performed in 50 mM Na-Phosphate pH 7.6 and 100 mM NaCl containing 0.05% Tween-20 in premium treated capillaries (Nanotemper Technologies®, GmbH). The final concentrations of either labeled protein in the assay were 100 nM. The ligands (NADH and peptides) were titrated in 1:1 dilutions following manufacturer's recommendations. All binding reactions were incubated 5′ at room temperature after loading into capillaries. Experiments were performed in triplicates using 40% LED power and medium MST power, LaserOn time was 20 sec, Laser Off time 3 sec. Linear octapeptides were evaluated for their thermophoretic pattern.

[2] = target: T1, LDHBtr; test: NMR WaterLOGSY binding screening
Method: All experiments were acquired on a Bruker Ascend Avance III 600 MHz equipped with a broadband cryoprobe (Bruker® GmBH, Germany)
(§2) NMR WaterLOGSY was performed on samples prepared in 10% D2O buffer containing 50 mM sodium phosphate buffer, pH 7.6 and 100 mM NaCl. The concentration of LDH subunits was 15-20 μM. Ligand binding was detected using a NMR WaterLOGSY ephogsygpno.2 advance-version sequence with a […]. Water signal suppression was achieved using excitation sculpting scheme and a 50 ms spinlock was used to suppress protein background signal. For each experiment, 512 scans were collected to yield a 16K points FID. NMR WaterLOGSY intensity was corrected by plotting the intensity difference of the ligand NMR WaterLOGSY spectra recorded in the presence and absence of protein.
For NMR WaterLOGSY screening experiments a correction factor was applied to account for slight concentration variation between samples. To do so, 8 scans 1H NMR spectra with 50 ms spinlock were recorded before NMR WaterLOGSY experiments. The intensity ratio of the aliphatic region (0.700 ppm to 0.955 ppm) with and without protein was used as a correction factor to compare the NMR WaterLOGSY intensity of the polypeptides of interest with and without LDH subunits. An arbitrary threshold of 0.1, corresponding to a 10% decrease in the NMR WaterLOGSY signal intensity between the spectra with and without protein, was set to discriminate between binders and non-binders.

[3] = target: T2, rabbit LDHA (LDH-M) (Oryctolagus cuniculus, UniProt P13491); test: Intrinsic fluorescence assay: recovery of tryptophan fluorescence after acidic dissociation, Example 1; type: biochemical; details: pre-dissociation at pH 5.0, neutralization; LT018 50 μM, LB8 up to 100 μM
T2 construct: purchased Sigma-Aldrich
Method: Following described procedure; rabbit LDHA commercial solution in an ammonium sulfate suspension in (pH-7.0, 3.2 M) was first diluted to 1 mg/ml in a solution of NaCl 200 mM and then dialyzed at 4° C. 2×2 h against 200 mM NaCl. The stock solution of 1 mg/ml was then diluted to 30 μg/ml in NaCl 200 mM to give the assay solution.
Assay solution was mixed 1:1 with either an acetate-chloride buffer (20 mM Acetic acid/Acetate, 180 mM NaCl, pH 5.0) or phosphate buffer (250 mM phosphate pH 7.6). After storage at 4° C. for 30′, samples were removed and diluted 1:1,250 mM phosphate buffer (pH 7.6) to yield a 7.5 μg/ml final concentration of re-associating LDH-M.
Samples of the resulting solutions were then subjected to kinetic experiments of the recovery of intrinsic fluorescence (Exc=286 nm, Em=350 nm, 10′, rt). Full tryptophan fluorescence spectra were afterward recorded (Exc=286 nm, Em=320-400 nm, rt).
To confirm this hypothesis, experiments were therefore designed to follow the recovery of the LDH tetrameric form after a pre-dissociation initiated in slightly acidic conditions. Briefly, six tryptophan residues are found in the LDH structure, three of them being located at the dimer-dimer interface. As the tryptophan quantum yield decreases in polar environment, dimeric LDHs show very weak tryptophan fluorescence compared to tetrameric one. […] The recovery of fluorescence upon pH neutralization is therefore a direct measure of the tetramer re-association.

[4] = target: T3, rabbit LDH5 (rLDH5) (Oryctolagus cuniculus, UniProt P13491); test: Denaturation assay: rLDH5 fluorescence recovery after acidic exposure; type: biochemical; details: 200 nM rLDH5, 50 μM peptide, pH 5 then neutral pH
T3 construct: purchased Sigma-Aldrich
Method: Rabbit LDHA commercial solution (Sigma-Aldrich®) in an ammonium sulfate suspension (pH-7, 3.2 M) was first diluted to 1 mg/ml in a solution of NaCl 200 mM and then dialyzed at 4° C. 2×2 h against 200 mM NaCl. The stock solution of 1 mg/ml was then diluted to 30 μg/ml (800 nM) in NaCl 20 0 mM to give the assay solution. Assay solution was mixed 1:1 with acetate-chloride buffer (20 mM Acetic acid/Acetate, 180 mM NaCl, 1 mM DTT pH 5) and stored on ice for 30 minutes. Samples were then removed from ice and let warm up for 2 minutes. The acidic solution was then diluted 1:1 with a 250 mM phosphate buffer (pH 7.6) containing or not the inhibitory peptide to yield a 7.5 μg/ml (200 nM) final concentration of re-associating LDHA. Samples of the resulting solutions were then subjected to kinetic experiments of the recovery of intrinsic fluorescence (Exc=286 nm, Em=350 nm, 10′, rt).
An experiment was thus designed to follow the recovery of LDH tetramers after a dissociation step initiated by acidic conditions. […] Monitoring of the rLDH5 tetrameric state was performed by following its intrinsic tryptophan fluorescence: 6 tryptophan residues can be found in each rLDHA monomer, three of them being located at the dimer-dimer interface. As the tryptophan quantum yield decreases in a polar environment, dimeric LDHs show very weak tryptophan fluorescence compared to the tetrameric form. […] Such decay can be compared to the difference in tryptophan fluorescence between tetrameric LDH1 and dimeric LDHBtr.

[5] = target: full length LDH1 enzyme (Homo sapiens, UniProt P07195); test: Biochemical/biophysical evaluation of interaction with full length tetrameric LDHB; type: binding
full length LDH1 enzyme, sequence (P07195 whole entry): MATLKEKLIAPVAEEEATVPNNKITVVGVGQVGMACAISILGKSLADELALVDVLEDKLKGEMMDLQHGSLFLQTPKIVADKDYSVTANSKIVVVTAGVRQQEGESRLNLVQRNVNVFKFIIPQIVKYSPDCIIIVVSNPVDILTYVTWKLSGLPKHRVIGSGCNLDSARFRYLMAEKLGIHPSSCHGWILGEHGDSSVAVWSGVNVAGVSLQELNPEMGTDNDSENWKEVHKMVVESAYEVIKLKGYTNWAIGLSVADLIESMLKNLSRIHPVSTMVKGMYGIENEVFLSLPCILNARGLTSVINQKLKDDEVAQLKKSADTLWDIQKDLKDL
Method: as §2
as §1, with “The ligands (NADH and peptides) were titrated in 1:1 dilutions following manufacturer's recommendations. All binding reactions were incubated 5′ at room temperature after loading into capillaries. Experiments were performed in triplicates using 40% LED power and medium MST power, LaserOn time was 20 sec, Laser Off time 3 sec.” left out

[6] = target: human LDH1 (Homo sapiens, UniProt P07195); test: nanoDSF thermal denaturation of LDH1; type: binding; details: nanoDSF
human LDH1, sequence (P07195 whole entry): as above

[7] = target: tetrameric LDH1 (Homo sapiens, UniProt P07195); test: Microscale thermophoresis (MST) on tetrameric LDH1; type: binding
tetrameric LDH1, sequence (P07195 whole entry): as above
Method: (§3) MST measurements were performed on a Nanotemper Monolith NT.115 instrument (NanoTemper Technologies®) using Red-dye-NHS fluorescent labeling. Each LDH sample, purified to homogeneity, was labeled with the Monolith Red-dye-NHS 2nd generation labeling dye (NanoTemper Technologies®), according to the manufacturer's instructions. Measurements were performed in 50 mM sodium phosphate, pH 7.6, and 100 mM NaCl containing 0.05% Tween-20 in premium-treated capillaries (NanoTemper Technologies®). The final concentrations of either labeled protein in the assay were 100 nM. The ligands (NADH and peptides) were titrated in 1:1 dilutions following manufacturer's recommendations. All binding reactions were incubated for 5 min at room temperature after loading into capillaries. Experiments were performed in triplicates using 40% LED power, medium MST power, Laser On time 20 s and Laser Off time 3 s. Peptides were evaluated for their thermophoretic pattern, and Kd's were extracted from raw data at a 10 to 20 s MST on time according to manufacturer's instructions. Regarding interaction of 7 with LDH5, Kd was extracted from the raw fluorescence. A denaturation test was performed accordingly to manufacturer recommendation and excluded any nonspecific spectral interaction between 7 and the red-dye. […]

[8] = target: T4, human LDH5 (Homo sapiens, UniProt P00338); test: nanoDSF thermal denaturation of LDH5; type: binding; details: nanoDSF
T4 construct: purchased Abnova

[9] = target: T5, tetrameric LDH5 (Homo sapiens, UniProt P00338); test: Microscale thermophoresis (MST) on tetrameric LDH5; type: binding
T5 construct: purchased Abnova
Method: as §3

[10] = linear peptides at 800 μM, LDHBtr 15 μM

Kd ([1]; linear peptides, read-out: Kd using MST experiment) | Binding using WaterLOGSY (800 μM) [2, 10] | recovery of fluorescence intensity after denaturation (LDH re-association) [3] | LDH5 fluorescence recovery after acidification [4] | NMR WaterLOGSY signal / saturation transfer [2] | Interaction with full length LDH1 / competition with LDHB native arm [5] | increase in potency compared to LB8 ([1]; Kd by MST) | Binding using WaterLOGSY (800 μM) ([2]; cyclic peptides at 800 μM) | effect on LDH1 stability [6] | binding to tetrameric LDH1 [7] | effect on LDH5 stability [8] | binding to tetrameric LDH5 [9] | Compound
1400 µM | + (binders) | no effects up to 100 μM | no effect |  |  |  |  |  |  |  |  | CC[C@H](C)[C@H](NC(=O)[C@H](CC(C)C)NC(=O)[C@H](CCCCN)NC(=O)[C@H](CCC(=O)O)NC(=O)[C@H](CCCCN)NC(=O)[C@H](CC(C)C)NC(=O)[C@@H](NC(=O)[C@H](C)N)[C@@H](C)O)C(N)=O [LB8, ATLKEKLI] (H-ATLKEKLI-NH2; N-terminus assumed)
 | + (binders) |  |  | positive signal | no interaction |  |  |  |  |  |  | CC[C@H](C)[C@H](NC(=O)[C@H](CC(C)C)NC(=O)[C@H](CCCCN)NC(=O)[C@H](CCC(=O)O)NC(=O)[C@H](CCCCN)NC(=O)[C@H](CC(C)C)NC(=O)[C@@H](NC(=O)[C@H](C)N)[C@@H](C)O)C(=O)N[C@@H](C)C(=O)N1CCC[C@H]1C(=O)N[C@H](C(=O)N[C@@H](C)C(=O)N[C@@H](CCC(=O)O)C(=O)N[C@@H](CCC(=O)O)C(=O)N[C@@H](CCC(=O)O)C(=O)N[C@@H](C)C(=O)N[C@H](C(=O)N[C@H](C(=O)N1CCC[C@H]1C(N)=O)C(C)C)[C@@H](C)O)C(C)C [LB19, ATLKEKLIAPVAEEEATVP] (H-ATLKEKLIAPVAEEEATVP-NH2; N-terminus assumed)

More lines, now with the values behind:

Compound | Kd ([1]; linear peptides, read-out: Kd using MST experiment) | Binding using WaterLOGSY (800 μM) [2, 10] | recovery of fluorescence intensity after denaturation (LDH re-association) [3] | LDH5 fluorescence recovery after acidification [4] | NMR WaterLOGSY signal / saturation transfer [2] | Interaction with full length LDH1 / competition with LDHB native arm [5] | increase in potency compared to LB8 ([1]; Kd by MST) | Binding using WaterLOGSY (800 μM) ([2]; cyclic peptides at 800 μM) | effect on LDH1 stability [6] | binding to tetrameric LDH1 [7] | effect on LDH5 stability [8] | binding to tetrameric LDH5 [9]
CC[C@H](C)[C@H](NC(=O)[C@H](CC(C)C)NC(=O)[C@H](CCCCN)NC(=O)[C@@H]1CSCc2cccc(c2)CSC[C@H](N)C(=O)N[C@@H]([C@@H](C)O)C(=O)N[C@@H](CC(C)C)C(=O)N[C@@H](CCCCN)C(=O)N1)C(N)=O [LT018, CTLKCKLI] (H-CTLKCKLI-NH2; linker 1-5 via mXylylene; N-terminus assumed) |  |  | nicely interfered with the fluorescence recovery at 50 μM |  | intense saturation transfer | not able to compete with LDHB native arm | 30 fold | + (binders) |  |  |  | 
CC[C@H](C)[C@H](NC(=O)[C@H](CC(C)C)NC(=O)[C@H](CCCCN)NC(=O)[C@@H]1CSCc2cccc(c2)CSC[C@H](N)C(=O)N[C@@H]([C@@H](C)O)C(=O)N[C@@H](CC(C)C)C(=O)N[C@@H](CCCCN)C(=O)N1)C(N)=O [MP1, CTLKCKLI] (H-CTLKCKLI-NH2; linker 1-5 via mXylylene; N-terminus assumed) |  |  |  | significantly interfered |  |  |  |  | no effect up to 500 μM | did not demonstrated any binding | no effect up to 500 μM | did not demonstrated any binding
Ac-LIAPVAE-NH2 [LBc, LB19 central fragment evaluated as a negative control, reference compound] |  | − (non-binders) | no effect | no effect | not to demonstrate any appreciable saturation transfer |  |  |  |  |  |  | 
